# From US10640466B2, “Anthracene based compounds and their uses” (UNIVERSITY OF HERTFORDSHIRE HIGHER EDUCATION CORPORATION, priority 2015, dated 2020)
# Experiments:
# S100P/RAGE function = target: T1, S100P/RAGE function (Homo sapiens, UniProt P25815); conditions: in vitro studies; cited from earlier work
# T1 sequence (P25815 1-95): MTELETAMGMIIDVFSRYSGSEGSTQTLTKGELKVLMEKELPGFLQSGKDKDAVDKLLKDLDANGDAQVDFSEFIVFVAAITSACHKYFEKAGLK
# Panc-1 cells [1] = experiment: Matrigel invasion assay, Panc-1; assay type: cell-based, Human; conditions: data not shown
# Protocol: (§1) Compound 2 was one of seventeen compounds from the virtual screen that were subjected to a Matrigel invasion assay (Corning®, USA) screening against BxPC-3 and Panc-1 pancreatic cancer cells.
# (§2) All reagents for in vitro studies were purchased from Sigma Aldrich (Dorset, UK) unless otherwise specified. Human pancreatic cancer cells, Panc-1 (ATCC® CRL-1469™) and BxPC-3 (ATCC® CRL-1687™), were purchased from LGC Standards (LGC Ltd., Middlesex, UK). Both were cultured in their respective culture medium—Dulbecco Modified Eagle Medium (DMEM) for Panc-1 and RPMI-1640 for BxPC-3 supplemented with 10% v/v Foetal Bovine Serum (FBS), 200U Penicillin/Streptomycin solution, and 2 mM L-glutamine. Both cells were maintained at 37° C. in a 5% humidified CO2 atmosphere and passaged at least three times a week when they have reached about 70% confluency using a standardised trypsinisation protocol. […]
# (§3) Matrigel invasion assay were carried out using transwell inserts with 8-μm pore size (BD-Bioscience, Oxford, UK) and Biocoat Matrigel Invasion plates (BD-Bioscience, Oxford, UK). […] The number of cells from five adjacent fields of view from each of the membranes were counted at a ×10 magnification to obtain the average number of cells per field. Data are expressed as the percent invasion through the Matrigel matrix and membrane relative to the invasion through the control membrane.
# BxPC-3 cells [2] = experiment: MTS cell proliferation assay, BxPC-3; assay type: cell-based, Human; conditions: for anti-proliferative effect on BxPC-3: 1 and 10 μM
# Protocol: (§4) FIG. 3 illustrates the anti-proliferative effect of cromolyn on pancreatic cancer cells. FIG. 3A illustrates BxPC-3, and FIG. 3B illustrates Panc-1 cells. Cells were seeded overnight (10^4 cells/well) in 96 well plates in complete medium supplemented with 10% v/v FBS, 2 mM L-glutamine and 200 U Penicillin/Streptomycin solution. Compounds were serially diluted into the wells and cell proliferation assessed using MTS assay after 24, 48, and 72 hours. Results are expressed as mean±SEM with n=4. P value of <0.05 (*), <0.01 (**), <0.001 (***) and <0.0001 (****) was determined relative to control using 2-Way ANOVA. Post-test comparisons were made using Bonferroni test at 95% confidence interval;
# FIG. 4 illustrates the anti-proliferative effects of compounds 2 (A), 3 (B), 8 (C), 26 (D) and 7 (E) on BxPC-3 cells. BxPC-3 cells were seeded overnight (10^4 cells/well) in 96-well plates in complete RPMI-1640 medium supplemented with 10% v/v FBS, 2 mM L-glutamine and 200 U Penicillin/Streptomycin solution. Compounds were serially diluted into the wells and cell proliferation assessed using MTS assay after 24, 48, and 72 hours. Results are expressed as mean±SEM with n=4. P value of <0.05 (*), <0.01 (**), <0.001 (***) and <0.0001 (****) was determined relative to control using 2-Way ANOVA. Post-test comparisons were made using Bonferroni test at 95% confidence interval;
# (§5) All reagents for in vitro studies were purchased from Sigma Aldrich (Dorset, UK) unless otherwise specified. Human pancreatic cancer cells, Panc-1 (ATCC® CRL-1469™) and BxPC-3 (ATCC® CRL-1687™), were purchased from LGC Standards (LGC Ltd., Middlesex, UK). Both were cultured in their respective culture medium—Dulbecco Modified Eagle Medium (DMEM) for Panc-1 and RPMI-1640 for BxPC-3 supplemented with 10% v/v Foetal Bovine Serum (FBS), 200U Penicillin/Streptomycin solution, and 2 mM L-glutamine. Both cells were maintained at 37° C. in a 5% humidified CO2 atmosphere and passaged at least three times a week when they have reached about 70% confluency using a standardised trypsinisation protocol. Cromolyn was purchased as a sodium salt while compounds 2, 3, 7, 8 and 26 were synthesised, characterised and purified at the University of Hertfordshire. To prepare stock concentrations (10 mM), cromolyn was dissolved in distilled water while compounds 2, 3, 7, 8 and 26 were dissolved in DMSO.
# (§6) Pancreatic cancer cells (1×10^5 cells/mL) in 100 μL complete cell culture medium were plated in 96-well plates (Sigma-Aldrich, Poole, UK) and incubated overnight at 37° C., 5% CO2 atmosphere. Cromolyn and compounds 2, 3, 7, 8 and 26 were prepared from stocks of 10 mM in serum-free medium and serially diluted to give 1, 10, 100 and 1000 μM. Control samples for this study included cells without any drugs, cell samples with DMSO at the corresponding concentration(s) and media-only samples. Cells were incubated with test compounds for 24, 48 and 72 h. At each time point i.e. 24, 48 and 72 h, CellTiter 960 AQueous Non-Radioactive Cell Proliferation Assay (MTS) (Promega, UK) was added to each well (1:5). Plates were incubated for 90 minutes before reading the absorbance at 492 nm using a Multiskan Ascent 96/384 plate reader (Thermo Scientific, Loughborough, UK). The experiments were repeated three times.
# For data analysis, background noise (media only wells) was subtracted from all wells. DMSO absorbance at 1, 10, 100 and 1000 μM was subtracted from wells with sample compounds before an average of all four replicates was taken. Data is plotted as mean from three repeats ±SEM with p value set at 0.05.
# Panc-1 cells [3] = experiment: MTS cell proliferation assay, Panc-1; assay type: cell-based, Human
# Protocol: as §4
# FIG. 5 illustrates anti-proliferative effect of compounds 2 (A), 3 (B), 8 (C), 26 (D) and 7 (E) on Panc-1 cells. Panc-1 cells were seeded overnight (10^4 cells/well) in 96-well plates in complete DMEM medium supplemented with 10% v/v FBS, 1% v/v L-glutamine and 200 U Penicillin/Streptomycin solution. Compounds were serially diluted into the wells and cell proliferation analysed using MTS assay after 24, 48, and 72 hours. Results are expressed as mean±SEM with n=4. P value of <0.05 (*), <0.01 (**), <0.001 (***) and <0.0001 (****) was determined relative to control using 2-Way ANOVA. Post-test comparisons were made Bonferroni test at 95% confidence interval; and
# as §5, with “To prepare stock concentrations (10 mM), cromolyn was dissolved in distilled water while compounds 2, 3, 7, 8 and 26 were dissolved in DMSO.” left out
# Pancreatic cancer cells (1×10^5 cells/mL) in 100 μL complete cell culture medium were plated in 96-well plates (Sigma-Aldrich, Poole, UK) and incubated overnight at 37° C., 5% CO2 atmosphere. […] Plates were incubated for 90 minutes before reading the absorbance at 492 nm using a Multiskan Ascent 96/384 plate reader (Thermo Scientific, Loughborough, UK). […]
# For data analysis, background noise (media only wells) was subtracted from all wells. DMSO absorbance at 1, 10, 100 and 1000 μM was subtracted from wells with sample compounds before an average of all four replicates was taken. […]
# BxPC-3 cells [4] = experiment: Matrigel invasion assay, BxPC-3; assay type: cell-based, Human; conditions: 48 h
# Protocol: FIG. 2 illustrates the effect of 2 and cromolyn (100 μM) BxPC-3 invasion. FIG. 2A illustrates the results when compound 2 was added to serum-free medium in the upper compartment of Matrigel invasion chamber along with the BxPC-3 cells; while media with 10% serum was added to lower chamber. After 48 hours, cells that had invaded onto the lower surface of the membrane were stained using Giemsa stain and cells in 5 different fields were counted for invasion studies. Results are expressed as the mean±SEM. P value of <0.05 (*), <0.01 (**) and <0.001 (***) was determined relative to control using 2-Way ANOVA. Photographs of representative membranes for cells after Giemsa staining when the cells were exposed in FIGS. 2B, 2C, 2D and 2E;
# as §1
# as §2, with “L-glutamine.” for “L-glutamine. Both cells were maintained at 37° C. in a 5% humidified CO2 atmosphere and passaged at least three times a week when they have reached about 70% confluency using a standardised trypsinisation protocol.”
# as §3
# [5] = Solubility in the culture media of the proliferation assay; assay type: physicochemical; conditions: at 100 μM and above
# Protocol: as §6
# S100P binding to RAGE = target: T2, S100P binding to RAGE (Homo sapiens, UniProt P25815); experiment: S100P/RAGE functional assay (ELISA of S100P-RAGE binding); conditions: initial results
# T2 sequence (P25815 1-95): T1 sequence (P25815 1-95)
# Protocol: FIGS. 6A to 6H illustrate the effect of drugs on the binding between 1 μM S100P and 30 nM RAGE in ELISA assay wherein n=3 from one plate.
# ELISA assay of S100P-RAGE binding was carried out using the method of Padilla et al. (Padilla, L., Dakhel, S., & Hernandez, J. (2014). S100 to receptor for advanced glycation end-products binding assay: Looking for inhibitors. Biochemical and Biophysical Research Communications, 446(1), 404-409. doi:10.1016/j.bbrc.2014.02.143). FIGS. 6A to 6H illustrate the effect of drugs on the binding between 1 μM S100P and 30 nM RAGE in ELISA assay wherein n=3 from one plate.
# BxPC-3 cells [6] = experiment: Trypan blue counting of BxPC-3 cells; assay type: cell-based, Human; conditions: 1 μM
# [7] = in vivo; cited from earlier work
# [8] = except at the higher concentration of 1000 μM
compound,measurement,setting,value
5-methyl cromolyn,concentration inhibiting S100P/RAGE function,S100P/RAGE function,100 nmol/L
"O=C(O)c1cccc(N2C(=O)C3C4c5ccccc5C([N+](=O)[O-])(c5ccccc54)C3C2=O)c1 (centres unmarked) [Compound 2, 3-(9-Nitro-12,14-dioxo-9,10-dihydro-9,10-[3,4]epipyrroloanthracen-13-yl)benzoic acid]",effect on invasion of Panc-1 cells,Panc-1 cells [1],No effect
same,inhibition of growth of BxPC-3 relative to control,"BxPC-3 cells [2]; all three concentrations, after 72 h, p<0.001",noticeable inhibition of growth
same,anti-proliferation effect on Panc-1 cells,Panc-1 cells [3],a similar effect was also observed
same,reduction in invasion of BxPC-3 cells across the Matrigel matrix,BxPC-3 cells [4]; 100 μM,17%
same,reduction in invasion of BxPC-3 cells across the Matrigel matrix,BxPC-3 cells [4]; 500 μM,100%
"CCOC(=O)c1cccc(N2C(=O)C3C4c5ccccc5C([N+](=O)[O-])(c5ccccc54)C3C2=O)c1 (centres unmarked) [Compound 3, Ethyl 3-(9-nitro-12,14-dioxo-9,10-dihydro-9,10-[3,4]epipyrroloanthracen-13-yl)benzoate]",anti-proliferative effect on BxPC-3 compared to 2,BxPC-3 cells [2]; after 24 h,more pronounced anti-proliferative effect
same,state of BxPC-3 cells compared to the control,BxPC-3 cells [2]; after 48 h,the cells appear to be recovering albeit only slightly
same,solubility issues in the culture media,[5],precipitating in the culture media
"O=C1C2C3c4ccccc4C([N+](=O)[O-])(c4ccccc43)C2C(=O)N1c1ccccc1 (centres unmarked) [Compound 7, 9-Nitro-13-phenyl-9,10-dihydro-9,10-[3,4]epipyrroloanthracene-12,14-dione]",anti-proliferative effect on BxPC-3,BxPC-3 cells [2],inhibited proliferation
same,anti-proliferation effect on Panc-1 cells,Panc-1 cells [3],inhibition was unfortunately observed
same,solubility issues in the culture media,[5],precipitating in the culture media
"O=C(O)c1ccc(N2C(=O)C3C4c5ccccc5C([N+](=O)[O-])(c5ccccc54)C3C2=O)cc1 (centres unmarked) [Compound 8, 4-(9-Nitro-12,14-dioxo-9,10-dihydro-9,10-[3,4]epipyrroloanthracen-13-yl)benzoic acid]",inhibition of S100P binding to RAGE,S100P binding to RAGE,nanomolar inhibition
same,metabolic activity of BxPC-3 cells,BxPC-3 cells [2]; 1 μM,no metabolic activity was observed
same,anti-proliferative effect on BxPC-3,BxPC-3 cells [2],more pronounced
same,solubility issues in the culture media,[5],precipitating in the culture media
same,viability of BxPC-3 cells by trypan blue counting,BxPC-3 cells [6],still viable
"O=C(O)c1cccc(N2C(=O)C3C4c5ccccc5C(c5ccccc54)C3C2=O)c1 (centres unmarked) [Compound 26, 3-(12,14-Dioxo-9,10-dihydro-9,10-[3,4]epipyrroloanthracen-13-yl)benzoic acid]",anti-proliferative effect on BxPC-3,BxPC-3 cells [2],inhibited proliferation
same,anti-proliferation effect on Panc-1 cells,Panc-1 cells [3],inhibition was unfortunately observed
"O=C(O)c1cc(=O)c2c(OCC(O)COc3cccc4oc(C(=O)O)cc(=O)c34)cccc2o1 [cromolyn, reference compound]",effect against the proliferation of BxPC-3 cells,BxPC-3 cells [2]; [8],no significant effect
same,effect against the proliferation of Panc-1 cells,Panc-1 cells [3]; [8],no significant effect
same,bioavailability,[7],low bioavailability
same,reduction in invasion of BxPC-3 cells across the Matrigel matrix,BxPC-3 cells [4]; 100 μM,20%
